“And” between values parts separate entries of the source, which are not always exact repeats. Identical values can stand only once.
Legend:
[1] = in certain instances; cited from earlier work
gout flares = details: allopurinol dosed with colchicine (0.5 mg QD); separate study; cited from earlier work
[2] = in certain instances; cited from earlier work; remark: listed apart in the source
[3] = test system: MSU-induced knee joint swelling; test: In vivo MSU-induced inflammation, rat knee joint study (Example 3C); set-up: species or system Sprague-Dawley rats; details: for Average increase in knee diameter: 4 h after MSU
Experimental: [table] Groups 1 and 2 were orally dosed with Vehicle (sterile water) once daily for seven days from Day 1. […] Groups 6 and 7 were orally dosed with Lesinurad once daily for seven days from Day 1; Group 7 also received colchicine administered subcutaneously on Day 7. […] The injection was performed from the anterior aspect of the knee joint, which was slightly extended and flexed. […] Four hours after MSU administration, the rats were anesthetized, the diameter of right knee joints were measured with calipers; surface temperature for right knees were measured. Synovial lavage fluid from the knee was collected by injecting phosphate buffered saline with 1% BSA (0.2 mL) into the joint cavity, the fluid then collected, centrifuged and the supernatants stored at −80° C.

[4] = test system: monosodium urate (MSU) crystal injection-induced inflammation; test: In vivo MSU-induced inflammation, rat air pouch study (Example 3B); set-up: species or system Sprague-Dawley rats; details: for Extravasation (optical absorbance at 620 nm), Av / Extravasation (optical absorbance at 620 nm), individual rats 1-10 / Exudate volume, Av / Exudate volume, individual rats 1-10 / Total white blood cell count, Av / Total white blood cell count, individual rats 1-10: 4 h after MSU
Experimental: (Air Pouch studies) were unpacked, placed in cages, a health inspection performed and a number assigned. […] Under anesthesia, 30 mL sterile air was injected subcutaneously on day 0 and day 3. Vehicle (water) or Lesinurad were administered orally. On the day of the experiment, rats were dosed with Vehicle, Lesinurad p.o., and/or colchicine s.c. (Sigma, Cat.#C9754, Lot.#188K1131). […] The pouch was gently massaged and the exudate was immediately removed from the air pouch. The exudate volume was measured and recorded for each animal. […] The supernatants were stored at −20° C. for cytokine analysis. […] Plasma extravasation was measured by optical absorbance at 620 nm for each exudate sample.

TNF-α = test: Effect of rilonacept on TNF-α production (Example 1, FIG. 2A); type: cell-based; details: 6 hour time point
Description: (§1) FIG. 2 illustrates the effect of rilonacept […] on TNF-α (FIG. 2A) and IL-1β production (FIG. 2B).
(§2) Activation of the inflammasome results in the release of preformed IL-1, which goes on to activate other targets as well as increase the production of IL-1 itself.

IL-1β = test: Effect of rilonacept on IL-1β production (Example 1, FIG. 2B); type: cell-based
Description: as §1, §2

CCCN(CCC)S(=O)(=O)c1ccc(C(=O)O)cc1 [probenecid]
individuals who fail to achieve reduction of serum uric acid levels <6 mg/dL [1]: 25-50%

Oc1ncnc2[nH]ncc12 [allopurinol]
patients experiencing flares (gout flares): 28% | incidence of side effects, of all individuals treated [2]: 20%

COc1cc2c(c(OC)c1OC)-c1ccc(OC)c(=O)cc1[C@@H](NC(C)=O)CC2 [Colchicine, reference compound]
Average increase in knee diameter ([3]; Colchicine 0.1 mg/kg s.c., p < 0.01 vs Vehicle): 0.71 mm | Average increase in knee diameter ([3]; Colchicine 0.3 mg/kg s.c., p < 0.001 vs Vehicle): 0.53 mm | Average increase in knee diameter ([3]; Colchicine 1 mg/kg s.c., p < 0.001 vs Vehicle): 0.41 mm | MSU-induced increase in knee diameter, in words ([3]; Colchicine 0.1, 0.3 and 1 mg/kg): dose-dependently decreased the MSU-induced increase in knee diameter | Extravasation (optical absorbance at 620 nm), Av ([4]; Colchicine 0.01 mg/kg s.c.): 1.78 | Extravasation (optical absorbance at 620 nm), individual rats 1-10 ([4]; Colchicine 0.01 mg/kg s.c.): 1.34 and 1.53 and 1.46 and 1.67 and 1.63 and 1.74 and 2.62 and 2.39 and 1.99 and 1.42 | Exudate volume, Av ([4]; Colchicine 0.01 mg/kg s.c.): 9.8 mL | Exudate volume, individual rats 1-10 ([4]; Colchicine 0.01 mg/kg s.c.): 12 mL (2×) and 8 mL (3×) and 10 mL and 9 mL (2×) and 11 mL (2×) | Total white blood cell count, Av ([4]; Colchicine 0.01 mg/kg s.c.): 1.65 ×10^8 | Total white blood cell count, individual rats 1-10 ([4]; Colchicine 0.01 mg/kg s.c.): 0.87 ×10^8 and 2.72 ×10^8 and 3.40 ×10^8 and 0.63 ×10^8 and 2.27 ×10^8 and 0.90 ×10^8 and 2.22 ×10^8 and 2.42 ×10^8 and 0.69 ×10^8 and 0.34 ×10^8 | Extravasation (optical absorbance at 620 nm), Av ([4]; Colchicine 0.1 mg/kg s.c.): 1.29 | Extravasation (optical absorbance at 620 nm), individual rats 1-10 ([4]; Colchicine 0.1 mg/kg s.c.): 1.25 and 1.41 and 1.31 and 1.74 and 0.68 and 1.75 and 1.72 and 0.98 and 0.83 and 1.22 | Exudate volume, Av ([4]; Colchicine 0.1 mg/kg s.c.): 9.86 mL | Exudate volume, individual rats 1-10 ([4]; Colchicine 0.1 mg/kg s.c.): 9 mL (2×) and 8 mL (2×) and 10 mL and 7.8 mL and 9.8 mL and 11 mL (2×) and 15 mL | Total white blood cell count, Av ([4]; Colchicine 0.1 mg/kg s.c.): 0.78 ×10^8 | Total white blood cell count, individual rats 1-10 ([4]; Colchicine 0.1 mg/kg s.c.): 0.41 ×10^8 and 0.14 ×10^8 and 2.60 ×10^8 and 1.21 ×10^8 and 0.32 ×10^8 and 1.27 ×10^8 and 1.51 ×10^8 and 0.03 ×10^8 and 0.06 ×10^8 and 0.27 ×10^8 | Extravasation (optical absorbance at 620 nm), Av ([4]; Colchicine 1 mg/kg s.c.): 0.89 | Extravasation (optical absorbance at 620 nm), individual rats 1-10 ([4]; Colchicine 1 mg/kg s.c.): 0.75 and 0.36 and 1.17 and 1.19 and 1.24 (2×) and 1.12 and 0.52 and 0.73 and 0.59 | Exudate volume, Av ([4]; Colchicine 1 mg/kg s.c.): 6.13 mL | Exudate volume, individual rats 1-10 ([4]; Colchicine 1 mg/kg s.c.): 8 mL (2×) and 4.4 mL and 7 mL and 5.9 mL and 8.6 mL and 5.6 mL and 4.6 mL and 4 mL and 5.2 mL | Total white blood cell count, Av ([4]; Colchicine 1 mg/kg s.c.): 0.56 ×10^8 | Total white blood cell count, individual rats 1-10 ([4]; Colchicine 1 mg/kg s.c.): 0.36 ×10^8 and 0.01 ×10^8 and 3.43 ×10^8 and 0.32 ×10^8 and 0.52 ×10^8 and 0.26 ×10^8 (2×) and 0.35 ×10^8 and 0.03 ×10^8 and 0.09 ×10^8 | Number of white blood cells, in words ([4]; Colchicine 0.01, 0.1, 1 mg/kg): dose-dependently lowered the number of white blood cells | Extravasation, in words ([4]; Colchicine 0.01, 0.1 and 1 mg/kg): dose-dependent decrease in extravasation | Exudate volume, in words ([4]; colchicine 1 mg/kg): significantly reduced exudate volume | Exudate volume, in words ([4]; colchicine 0.01 and 0.1 mg/kg): did not significantly reduce exudate volume

rilonacept
TNF-α production (TNF-α): only inhibits the production of TNF-α | IL-1 production (IL-1β): does not reduce IL-1 production

From US9402827B2, “Treatment of gout” (ARDEA BIOSCIENCES, INC., priority 2010, dated 2016)
